Measured values published in patent US20240132489A1, “AROMATIC HETEROCYCLIC COMPOUND, PHARMACEUTICAL COMPOSITION, AND USE THEREOF” (GT APEIRON THERAPEUTICS LIMITED, priority 2020, published 2024).
Where a name gives a salt, the structure may show the parent alone.

Experiments:
[1] = target: CDK7/cyclin H/MAT1 complex (Homo sapiens (Human), UniProt P50613); test: In vitro enzymatic inhibitory activity test, CDK7; format: biochemical; details: Caliper mobility shift, 180 min at 27° C.
Procedure: (§1) CDK7/CyclinH was diluted in a test buffer solution (20 mM MES PH6.75, 0.01% Tween20, 50 ug/mL BSA, 6 mM MgCl2) to obtain a corresponding enzyme solution with a 2.4× concentration. CDK2/CyclinE1 was diluted in a test buffer solution (20 mM MES PH6.75, 0.01% Tween20, 50 ug/mL BSA, 6 mM MgCl2) to obtain a corresponding enzyme solution with a 2.4× concentration. CDK9/CyclinT1 was diluted in a test buffer solution (20 mM MES PH6.75, 0.01% Tween20, 50 ug/mL BSA, 10 mM MgCl2) to obtain a corresponding enzyme solution with a 2.4× concentration. CDK12/CyclinK was diluted in a test buffer solution (80 mM MES PH6.5, 0.01% Tween20, 50 ug/mL BSA, 10 mM MgCl2) to obtain a corresponding enzyme solution with a 2.4× concentration. The compounds were dissolved in dimethyl sulfoxide (DMSO) at a concentration of 10 mM. […] 2 ul of a test compound solution was mixed with 5 ul of enzyme solution. After incubating for 10 min, 5 ul of the mixed solution of the polypeptide substrate and ATP was added. After incubating at 27° C. for 180 min, 4 uL of EDTA with a 120 mM concentration was added to each sample to stop the reaction. […] A CDK9/cyclin TI complex (8 nM) and a “5-FAM-CDK9tide” peptide substrate (2 μM, synthetic fluorophore labeled peptide having the following sequence: 5-FAM-GSRTPMY-NH2, where 5-FAM was as defined above, and NH2 represented C-terminal amide) were used for testing the CDK9 inhibition. […] A CDK2/cyclin E1 complex (0.5 nM) and the “5-FAM-CDK7tide” (2 μM) as defined above were used for testing the CDK2 inhibition.
(§2) Electrophoretic separation was performed on Caliper EZ Reader II by means of a fluorogenic substrate and a phosphorylated product to analyze the reaction mixture. Data were calculated by using GraphPad Prism version 6.0. IC50 values were adjusted by means of a nonlinear regression model using a dose-response curve.

CDK2/cyclin E1 complex = CDK2/cyclin E1 complex (Homo sapiens (Human), UniProt P24941); test: In vitro enzymatic inhibitory activity test, CDK2; format: biochemical; details: Caliper mobility shift, 180 min at 27° C.
Procedure: CDK7/CyclinH was diluted in a test buffer solution (20 mM MES PH6.75, 0.01% Tween20, 50 ug/mL BSA, 6 mM MgCl2) to obtain a corresponding enzyme solution with a 2.4× concentration. CDK2/CyclinE1 was diluted in a test buffer solution (20 mM MES PH6.75, 0.01% Tween20, 50 ug/mL BSA, 6 mM MgCl2) to obtain a corresponding enzyme solution with a 2.4× concentration. CDK9/CyclinT1 was diluted in a test buffer solution (20 mM MES PH6.75, 0.01% Tween20, 50 ug/mL BSA, 10 mM MgCl2) to obtain a corresponding enzyme solution with a 2.4× concentration. CDK12/CyclinK was diluted in a test buffer solution (80 mM MES PH6.5, 0.01% Tween20, 50 ug/mL BSA, 10 mM MgCl2) to obtain a corresponding enzyme solution with a 2.4× concentration. […] 2 ul of a test compound solution was mixed with 5 ul of enzyme solution. After incubating for 10 min, 5 ul of the mixed solution of the polypeptide substrate and ATP was added. After incubating at 27° C. for 180 min, 4 uL of EDTA with a 120 mM concentration was added to each sample to stop the reaction. […] A CDK9/cyclin TI complex (8 nM) and a “5-FAM-CDK9tide” peptide substrate (2 μM, synthetic fluorophore labeled peptide having the following sequence: 5-FAM-GSRTPMY-NH2, where 5-FAM was as defined above, and NH2 represented C-terminal amide) were used for testing the CDK9 inhibition. […] A CDK2/cyclin E1 complex (0.5 nM) and the “5-FAM-CDK7tide” (2 μM) as defined above were used for testing the CDK2 inhibition.
as §2

CDK9/CyclinT1 = CDK9/CyclinT1 (Homo sapiens (Human), UniProt P50750); test: In vitro enzymatic inhibitory activity test, CDK9; format: biochemical; details: Caliper mobility shift, 180 min at 27° C.
Sequence of CDK9/CyclinT1 (P50750 whole entry, species assumed): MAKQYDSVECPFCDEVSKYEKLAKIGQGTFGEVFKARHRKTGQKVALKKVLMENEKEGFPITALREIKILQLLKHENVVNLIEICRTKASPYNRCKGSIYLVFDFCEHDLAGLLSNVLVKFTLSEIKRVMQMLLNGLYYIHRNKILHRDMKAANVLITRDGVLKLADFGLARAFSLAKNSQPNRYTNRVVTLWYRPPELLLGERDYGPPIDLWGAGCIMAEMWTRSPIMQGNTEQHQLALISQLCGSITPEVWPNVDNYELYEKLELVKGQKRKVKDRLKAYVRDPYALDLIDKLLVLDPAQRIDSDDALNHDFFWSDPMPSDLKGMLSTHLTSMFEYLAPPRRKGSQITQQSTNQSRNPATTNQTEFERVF
Sequence of CDK9/CyclinT1 (O60563 whole entry partner, species assumed): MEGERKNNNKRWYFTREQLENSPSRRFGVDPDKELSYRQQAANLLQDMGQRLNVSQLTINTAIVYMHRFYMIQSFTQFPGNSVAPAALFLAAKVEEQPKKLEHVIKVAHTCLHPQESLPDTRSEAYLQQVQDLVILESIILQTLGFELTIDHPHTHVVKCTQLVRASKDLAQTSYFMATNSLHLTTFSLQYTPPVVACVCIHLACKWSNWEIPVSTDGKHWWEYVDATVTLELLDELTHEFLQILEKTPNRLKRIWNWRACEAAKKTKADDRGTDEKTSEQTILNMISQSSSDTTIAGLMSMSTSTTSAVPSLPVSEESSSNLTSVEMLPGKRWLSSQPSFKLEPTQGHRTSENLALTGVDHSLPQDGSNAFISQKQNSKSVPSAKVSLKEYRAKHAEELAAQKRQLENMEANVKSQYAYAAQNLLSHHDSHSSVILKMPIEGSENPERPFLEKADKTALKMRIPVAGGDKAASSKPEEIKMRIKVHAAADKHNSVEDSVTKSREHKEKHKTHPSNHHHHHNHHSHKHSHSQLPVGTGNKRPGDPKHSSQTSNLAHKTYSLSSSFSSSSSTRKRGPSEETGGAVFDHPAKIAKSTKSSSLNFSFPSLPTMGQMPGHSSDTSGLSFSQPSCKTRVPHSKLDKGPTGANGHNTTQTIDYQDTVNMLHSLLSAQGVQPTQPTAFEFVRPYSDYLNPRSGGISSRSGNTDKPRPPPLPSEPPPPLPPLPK
Procedure: as §1, §2

[2] = target: CDK12(aa686-1082)/cyclin K complex (Homo sapiens (Human), UniProt Q9NYV4); test: In vitro enzymatic inhibitory activity test, CDK12; format: biochemical; details: Caliper mobility shift, 180 min at 27° C.
Sequence of CDK12(aa686-1082)/cyclin K complex (Q9NYV4 686-1082, species assumed): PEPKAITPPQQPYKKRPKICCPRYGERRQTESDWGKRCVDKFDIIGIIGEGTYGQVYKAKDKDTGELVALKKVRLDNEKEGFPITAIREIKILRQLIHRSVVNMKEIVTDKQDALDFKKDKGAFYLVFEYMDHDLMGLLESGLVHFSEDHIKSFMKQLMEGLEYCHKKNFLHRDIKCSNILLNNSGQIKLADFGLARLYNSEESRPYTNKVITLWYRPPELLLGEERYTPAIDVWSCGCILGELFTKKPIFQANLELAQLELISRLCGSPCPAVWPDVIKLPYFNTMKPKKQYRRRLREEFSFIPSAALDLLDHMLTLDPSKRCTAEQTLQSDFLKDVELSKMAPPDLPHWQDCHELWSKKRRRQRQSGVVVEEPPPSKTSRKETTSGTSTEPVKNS
Sequence of CDK12(aa686-1082)/cyclin K complex (O75909 whole entry partner, species assumed, the tested form may be a part): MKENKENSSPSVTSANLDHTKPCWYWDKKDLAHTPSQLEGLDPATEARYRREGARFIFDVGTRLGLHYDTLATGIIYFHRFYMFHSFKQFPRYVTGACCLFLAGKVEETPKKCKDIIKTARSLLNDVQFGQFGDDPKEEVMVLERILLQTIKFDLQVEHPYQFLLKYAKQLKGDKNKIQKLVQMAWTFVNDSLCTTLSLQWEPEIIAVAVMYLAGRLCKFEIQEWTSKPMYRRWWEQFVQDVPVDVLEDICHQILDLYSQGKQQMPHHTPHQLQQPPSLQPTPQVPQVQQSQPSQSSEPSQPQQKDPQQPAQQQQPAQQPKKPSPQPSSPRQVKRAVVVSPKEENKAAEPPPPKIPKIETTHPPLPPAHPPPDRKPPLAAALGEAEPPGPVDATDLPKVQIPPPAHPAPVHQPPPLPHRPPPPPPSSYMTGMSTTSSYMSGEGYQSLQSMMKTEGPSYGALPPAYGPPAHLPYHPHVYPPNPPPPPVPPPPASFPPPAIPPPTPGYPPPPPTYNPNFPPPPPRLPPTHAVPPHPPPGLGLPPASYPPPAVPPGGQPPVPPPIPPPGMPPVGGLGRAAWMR
Procedure: as §1, §2

HCC70 cells = test: Cell bioactivity detection (CyQuant), HCC70; format: cell-based; details: Homo sapiens, HCC70, 72 h, human breast cancer cells HCC70, 72 hours
Procedure: (§3) Trypsinization was performed on A2780 and HCC70 cells. Cell suspensions were respectively transferred to 15 mL of centrifuge tubes and centrifuged at 800 rpm for 5 min. The supernatant was discarded. Resuspension in a fresh culture medium (RPMI 1640+10% FBS) was performed. After counting, the cells were inoculated at 2000/well in a 384-well plate (50 φL of 1640+10% FBS culture medium was added to the 2nd line and the 23rd line of the 384-well plate, and 50 μL of DPBS was added to surrounding wells). Incubation in an incubator (37° C., 5% CO2) was performed overnight.
(§4) The compound was added to the well plate the next day. The compound had the highest concentration of 10 μM and was diluted at the ratio of 1:4 to form 9 concentrations. The positive compound Paclitaxel had the highest concentration of 1 μM and was diluted at the ratio of 1:3 to form 9 concentrations. The DMSO content of each well was unified to 0.2%. A cell plate was centrifuged at 800 rpm for 30 seconds. Incubation for 72 hours in an incubator (37° C., 5% CO2) was performed. On the fourth day, a Cyquant reagent (3×) was prepared according to kit instructions. Each 384-well plate was prepared in the following proportions: DPBS: 11.568 mL, CyQuant® Direct nucleic acid stain: 72 μL, CyQuant® Direct background suppressor: 360 ILL. The plates were uniformly mixed and placed for standby application at room temperature. The cell plate was taken out and placed at room temperature to be balanced for 30 min. 25 μL of Cyquant reagent (3×) was dispensed to the cells in each well of the 384-well plates by using a Multi-drop dispenser. Incubation at 37° C. for 60 or more minutes was performed. The plates were read by Acumen (Acumen was configured to have a 488 nm excitation wavelength). IC50 results were analyzed by XLFIT5 of the IDBS company.

A2780 cells = test: Cell bioactivity detection (CyQuant), A2780; format: cell-based, human; details: Homo sapiens, A2780, 72 h, ovarian carcinoma cells A2780, 72 hours
Procedure: as §3, §4

Sequence of CDK7/cyclin H/MAT1 complex (P50613 whole entry, species assumed): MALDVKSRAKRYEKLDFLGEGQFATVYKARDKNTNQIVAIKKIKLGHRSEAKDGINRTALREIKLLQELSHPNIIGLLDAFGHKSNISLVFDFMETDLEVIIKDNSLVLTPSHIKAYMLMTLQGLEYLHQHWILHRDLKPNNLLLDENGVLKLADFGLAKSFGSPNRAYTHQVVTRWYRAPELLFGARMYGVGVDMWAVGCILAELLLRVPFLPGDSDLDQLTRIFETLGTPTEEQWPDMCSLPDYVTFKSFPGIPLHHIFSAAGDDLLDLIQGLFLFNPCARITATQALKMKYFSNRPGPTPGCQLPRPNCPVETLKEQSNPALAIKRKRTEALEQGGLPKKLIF
Sequence of CDK7/cyclin H/MAT1 complex (P51946 whole entry partner, species assumed): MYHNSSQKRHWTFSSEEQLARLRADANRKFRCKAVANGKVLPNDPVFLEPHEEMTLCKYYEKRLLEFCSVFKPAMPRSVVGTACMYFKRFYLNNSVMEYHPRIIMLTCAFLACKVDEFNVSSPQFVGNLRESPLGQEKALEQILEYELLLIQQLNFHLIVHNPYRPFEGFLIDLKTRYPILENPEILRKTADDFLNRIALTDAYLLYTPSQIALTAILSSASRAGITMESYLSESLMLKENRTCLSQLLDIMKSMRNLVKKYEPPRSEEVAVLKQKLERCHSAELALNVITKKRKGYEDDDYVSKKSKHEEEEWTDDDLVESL
Sequence of CDK7/cyclin H/MAT1 complex (P51948 whole entry partner, species assumed): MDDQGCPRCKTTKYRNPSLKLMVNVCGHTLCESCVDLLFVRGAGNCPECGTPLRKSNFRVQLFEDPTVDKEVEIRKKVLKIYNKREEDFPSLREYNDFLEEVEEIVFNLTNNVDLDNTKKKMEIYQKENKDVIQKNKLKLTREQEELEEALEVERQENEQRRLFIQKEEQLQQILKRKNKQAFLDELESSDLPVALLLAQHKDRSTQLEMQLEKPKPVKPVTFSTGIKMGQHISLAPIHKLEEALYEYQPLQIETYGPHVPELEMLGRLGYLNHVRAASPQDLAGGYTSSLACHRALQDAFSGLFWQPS

IC50 [1] [nM]	IC50 (CDK2/cyclin E1 complex) [nM]	IC50 (CDK9/CyclinT1) [nM]	IC50 [2] [nM]	IC50 (A2780 cells) [nM]	SMILES	IC50 (HCC70 cells) [nM]
7.05	3050	2860	783	4.7	FC(F)(F)c1cnc(N[C@H]2CCCNC2)nc1-c1c[nH]c2nc(N3CCCOCC3)ccc12 [Compound 22, (S)-4-(6-(1,4-oxazepan-4-yl)-1H-pyrrolo[2,3-b]pyridin-3-yl)-N-(piperidin-3-yl)-5-(trifluoromethyl)pyrimidine-2-amine]	10.7
13.1	4310	2610	783	8.8	CC1(O)CCN(c2ccc3c(-c4nc(N[C@H]5CCCNC5)ncc4C(F)(F)F)c[nH]c3n2)CC1 [Compound 23, (S)-4-methyl-1-(3-(2-(piperidine-3-amino)-5-(trifluoromethyl)pyrimidin-4-yl)-1H-pyrrolo[2,3-b]pyridin-6-yl)piperidin-4-ol]	19.9
17.4	8500	5250	1970	110	FC(F)(F)c1cnc(N[C@H]2CCCNC2)nc1-c1c[nH]c2nc(N3CCN(C4COC4)CC3)ccc12 [Compound 24, (S)-4-(6-(4-(oxetan-3-yl)piperazin-1-yl)-1H-pyrrolo[2,3-b]pyridin-3-yl)-N-(piperidin-3-yl)-5-(trifluoromethyl)pyrimidine-2-amine]	72
6.5	1040	402	277	7.9	O=S1(=O)CCN(c2ccc3c(-c4nc(N[C@H]5CCCNC5)ncc4C(F)(F)F)c[nH]c3n2)CC1 [Compound 25, (S)-4-(3-(2-(piperidine-3-amino)-5-(trifluoromethyl)pyrimidin-4-yl)-1H-pyrrolo[2,3-b]pyridin-6-yl)thiomorpholine-1,1-dioxide]	11
9.5	> 10000	> 10000	> 10000	30	C[C@H]1COCCN1c1ccc2c(-c3nc(N[C@H]4CCC(C)(C)NC4)ncc3C(F)(F)F)c[nH]c2n1 [Compound 26, N—((S)-6,6-dimethylpiperidin-3-yl)-4-(6-((S)-3-methylmorpholinyl)-1H-pyrrolo[2,3-b]pyridin-3-yl)-5-(trifluoromethyl)pyrimidine-2-amine]	52
2.17	1120	1500	418	5.1	FC(F)(F)c1cnc(N[C@H]2CCCNC2)nc1-c1c[nH]c2nc(C3=CCOCC3)ccc12 [Compound 27, (S)-4-(6-(3,6-dihydro-2H-pyran-4-yl)-1H-pyrrolo[2,3-b]pyridin-3-yl)-N-(piperidin-3-yl)-5-(trifluoromethyl)pyrimidine-2-amine]	30
6.96	3470	3630	1100	7.8	FC(F)(F)c1cnc(N[C@H]2CCCNC2)nc1-c1c[nH]c2nc(C3CCOCC3)ccc12 [Compound 28, (S)—N-(piperidin-3-yl)-4-(6-(tetrahydro-2H-pyran-4-yl)-1H-pyrrolo[2,3-b]pyridin-3-yl)-5-(trifluoromethyl)pyrimidine-2-amine formate]	7.7
7.08	1260	2480	855	2.1	FC(F)(F)c1cnc(N[C@H]2CCCNC2)nc1-c1c[nH]c2nc(C3CCOC3)ccc12 (stereo partly drawn) [Compound 29, N—((S)-piperidin-3-yl)-4-(6-(tetrahydrofuran-3-yl)-1H-pyrrol[2,3-b]pyridin-3-yl)-5-(trifluoromethyl)pyrimidine-2-amine formate]	3.1
10.5	3260	9530	2150	5.6	FC(F)(F)c1cnc(N[C@H]2CCCNC2)nc1-c1c[nH]c2nc(C3CCCCO3)ccc12 (stereo partly drawn) [Compound 30, N—((S)-piperidin-3-yl)-4-(6-(tetrahydropyran-2-yl)-1H-pyrrolo[2,3-b]pyridin-3-yl)-5-(trifluoromethyl)pyrimidine-2-amine formate]	20
8.13	968	1480	517	4.1	FC(F)(F)c1cnc(N[C@H]2CCCNC2)nc1-c1c[nH]c2nc(C34CCOCC3C4)ccc12 (stereo partly drawn) [Compound 31, 4-(6-(3-oxabicyclo[4.1.0]heptan-6-yl)-1H-pyrrolo[2,3-b]pyridin-3-yl)-N—((S)-piperidin-3-yl)-5-(trifluoromethyl)pyrimidine-2-amine formate]	5.8
19.9	3630	6520	3430	6.3	FC(F)(F)c1cnc(N[C@H]2CCCNC2)nc1-c1c[nH]c2nc(N3CC4CCC3CO4)ccc12 (stereo partly drawn) [Compound 32, 4-(6-(2-oxo-5-azabicyclo[2.2.2]octan-5-yl)-1H-pyrrol[2,3-b]pyridin-3-yl)-N—((S)-piperidin-3-yl)-5-(trifluoromethyl)pyrimidine-2-amine]	24
46.8	3230	4430	2010	2.4	FC(F)(F)c1cnc(N[C@H]2CCCNC2)nc1-c1c[nH]c2nc(N3CCOC[C@@H]3C(F)(F)F)ccc12 [Compound 33, N—((S)-piperidin-3-yl)-5-(trifluoromethyl)-4-(6-((R)-3-(trifluoromethyl)morpholinyl)-1H-pyrrol[2,3-b]pyridin-3-yl)pyrimidine-2-amine]	12
